Laboratory results reported in patent US20080187508A1, “Treatment of Golmerular Basement Membrane Disease Involving Matrix Metalloproteinase-12” (BOYS TOWN NATIONAL RESEARCH HOSPITAL, priority 2004, published 2008).
“Also recorded” adds a separate entry of the source.

Key:
Alport mice [1] = conditions: cited from earlier work
MMP-9 mRNA = assay: real time PCR of glomerular RNA of propagermanium-treated Alport mice: MMP-9; assay type: in vivo, mouse; conditions: propagermanium 10 mg/kg oral gavage once daily from 5 to 7 weeks of age
Experimental: (§1) Isolation of mouse glomeruli was performed as described by Takemoto et al., (Am. J. Pathol. (2002)161, 799-805). The procedure involves cardiac perfusion with deactivated […] Dynabeads (Dynal Biotech, Oslo, Sweden), followed by collagenase digestion and glomerular isolation using a magnet.
(§2) Total RNA samples were treated with RNase-free DNase I (Gibco BRL, USA) at 37° C. for 1 hour (hr) in order to remove any contaminating genomic DNA before reverse transcription (RT). Total RNA was reverse-transcribed by using Superscript II (GIBCO BRL) with oligo dt primers. To ensure that the quantitation of MMP transcripts in serial samples was not affected by differences in the amount of RNA added, integrity of RNA, or sample to sample differences in levels of RT-PCR inhibition, an internal control reaction targeting the GAPDH gene was run in multiplex with each reaction, and used to normalize results for MMP transcripts. […] The data were analyzed using comparative threshold cycle (CT) method. The mRNA quantity for the control is expressed as 1× sample and all other quantities from Alport samples are expressed as fold difference relative to the controls. No measurable fluorescence signal was detected in repeated RT-PCR runs in which the reverse transcriptase was omitted from the reaction mixture. […]

MMP-3 mRNA = assay: real time PCR of glomerular RNA of propagermanium-treated Alport mice: MMP-3; assay type: in vivo, mouse; conditions: propagermanium 10 mg/kg oral gavage once daily from 5 to 7 weeks of age
Experimental: as §1, §2

Alport mice [2] = assay: transmission electron microscopy of glomerular basement membrane of treated Alport mice; assay type: in vivo, mouse
Experimental: The Alport mouse model has been described (Cosgrove et al. (1996) Genes Dev. 10, 2981-2992). The control mice used were normal for both collagen α3(IV) alleles, and are a product of double heterozygote crosses for the Alport mutation. The use of animals in this study was performed in accordance with an approved institutional IACUC protocol. Extreme care was taken to minimize pain and discomfort suffered by the mice. MMP inhibitors were administered between 4 and 7 weeks of age. All drugs were freshly prepared prior to administration. BAY 129566 was emulsified in suspension with 0.5% carboxymethyl cellulose and 4 mg given once a day by oral gavage. MMI-270 was solubilized in 0.9% saline and administered by I.P. injection (50 μg/g body weight) once a day. Transmission electron microscopy was performed as previously described (Cosgrove et al., 1996, Genes Dev. 10, 2981-2992). Ultrastructural localization studies of type IV collagen were performed essentially as previously described (Bhattacharya et al., 2002). Kidneys from 7-week-old control and Alport mice were fixed by heart perfusion with 2% paraformaldehyde in PBS, and post-fixed in this same solution overnight. Ultrathin (70 nm) sections were reacted for 4 hours at room temperature with goat anti-collagen IV antibodies (Southern Biotechnology, Birmingham, Ala.). After six 10 minute washes in PBS, specimen were reacted for 2 hours at room temperature with 10 nanometers (nm) gold-conjugated anti-rabbit antibodies (Vector Laboratories, Burlingame, Calif.). Grids were washed as before, air-dried, counterstained with uranyl acetate, and examined using transmission electron microscopy. Propagermanium (3-oxygemylpropinic acid polymer, Sanwa Kagaku Kenkyusho Co., Nagoya, Japan) was administered orally (10 milligrams per kilogram (mg/kg) in 1% gelatin) by gavage once daily starting at 5 weeks of age, and kidneys harvested at 7 weeks of age. Three animals per group, Alport mice and control litter mates, gavaged with drug or vehicle only, were analyzed. […] Proteolytic degradation of the GBM in Alport syndrome might underlie the progressive irregular GBM damage and podocyte foot process effacement. Type IV collagen from Alport kidneys is more susceptible to proteolytic degradation in vitro than type IV collagen from healthy kidneys (Kalluri et al. (1997) J. Clin. Invest. 99, 2470-2478, presumably owing to the reduced number of interchain disulfide crosslinks (Gunwar et al. (1998) J. Biol. Chem. 273, 8767-8775).

MMP-12 mRNA = assay: real time PCR of glomerular RNA of propagermanium-treated Alport mice: MMP-12; assay type: in vivo, mouse; conditions: propagermanium 10 mg/kg oral gavage once daily from 5 to 7 weeks of age, 50-fold in vehicle-treated
Experimental: as §1, §2

MMP-3 = MMP-3 (Homo sapiens, UniProt P08254); conditions: listed as BAY 129566; cited from earlier work
MMP-3, sequence (P08254 100-477, species assumed): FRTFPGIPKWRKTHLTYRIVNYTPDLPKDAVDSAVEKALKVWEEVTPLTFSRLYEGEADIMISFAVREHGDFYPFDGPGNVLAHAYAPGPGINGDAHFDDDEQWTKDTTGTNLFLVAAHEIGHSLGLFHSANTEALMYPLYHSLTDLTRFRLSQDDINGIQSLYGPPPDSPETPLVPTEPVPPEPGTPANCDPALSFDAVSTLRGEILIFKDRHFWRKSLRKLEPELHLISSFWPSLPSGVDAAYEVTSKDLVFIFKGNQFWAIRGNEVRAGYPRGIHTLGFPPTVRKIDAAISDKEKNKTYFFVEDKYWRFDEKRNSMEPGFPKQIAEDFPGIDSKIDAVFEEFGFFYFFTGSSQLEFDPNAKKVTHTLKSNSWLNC

MMP-12 = MMP-12 (Homo sapiens, UniProt P39900); conditions: listed as BAY-12-9566; cited from earlier work
MMP-12, sequence (P39900 106-470, species assumed): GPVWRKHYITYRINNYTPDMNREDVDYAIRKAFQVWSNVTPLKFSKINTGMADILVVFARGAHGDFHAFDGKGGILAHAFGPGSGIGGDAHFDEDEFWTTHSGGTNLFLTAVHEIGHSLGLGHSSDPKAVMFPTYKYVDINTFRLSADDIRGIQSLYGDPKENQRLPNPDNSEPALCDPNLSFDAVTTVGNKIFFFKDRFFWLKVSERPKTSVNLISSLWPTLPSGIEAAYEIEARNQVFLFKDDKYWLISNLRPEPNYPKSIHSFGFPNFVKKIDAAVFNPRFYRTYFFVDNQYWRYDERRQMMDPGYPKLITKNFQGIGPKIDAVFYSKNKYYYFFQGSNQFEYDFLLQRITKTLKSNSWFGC

MMP-2 = molecular target: T1, MMP-2 (Homo sapiens, UniProt P08253); conditions: listed as BAY 129566; cited from earlier work
T1 sequence (P08253 110-660): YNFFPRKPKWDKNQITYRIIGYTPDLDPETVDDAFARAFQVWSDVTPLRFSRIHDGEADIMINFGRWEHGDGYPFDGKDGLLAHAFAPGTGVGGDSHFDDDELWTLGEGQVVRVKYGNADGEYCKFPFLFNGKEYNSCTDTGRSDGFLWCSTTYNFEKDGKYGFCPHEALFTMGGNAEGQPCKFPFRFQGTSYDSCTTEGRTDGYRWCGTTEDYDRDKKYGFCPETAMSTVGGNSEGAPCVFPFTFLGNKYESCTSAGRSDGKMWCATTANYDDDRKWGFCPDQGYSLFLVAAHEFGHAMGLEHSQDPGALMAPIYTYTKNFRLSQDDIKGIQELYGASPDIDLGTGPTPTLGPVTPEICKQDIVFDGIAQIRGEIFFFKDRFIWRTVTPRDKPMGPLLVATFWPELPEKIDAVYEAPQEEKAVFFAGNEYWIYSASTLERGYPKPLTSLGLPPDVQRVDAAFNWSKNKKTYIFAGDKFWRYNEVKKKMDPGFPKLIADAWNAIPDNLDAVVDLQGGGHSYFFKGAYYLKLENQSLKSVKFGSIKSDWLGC

Alport mice [3] = assay: immunofluorescence of kidney cryosections (fibronectin, collagen IV α1/α2) of treated Alport mice; assay type: in vivo, mouse; conditions: Alport mice treated from 4 to 7 weeks of age; MMI-270 50 μg/g I.P., BAY 129566 4 mg once daily oral gavage; fibronectin and collagen IV α1/α2 immunostaining
Experimental: The Alport mouse model has been described (Cosgrove et al. (1996) Genes Dev. 10, 2981-2992). The control mice used were normal for both collagen α3(IV) alleles, and are a product of double heterozygote crosses for the Alport mutation. The use of animals in this study was performed in accordance with an approved institutional IACUC protocol. Extreme care was taken to minimize pain and discomfort suffered by the mice. MMP inhibitors were administered between 4 and 7 weeks of age. All drugs were freshly prepared prior to administration. BAY 129566 was emulsified in suspension with 0.5% carboxymethyl cellulose and 4 mg given once a day by oral gavage. MMI-270 was solubilized in 0.9% saline and administered by I.P. injection (50 μg/g body weight) once a day.
Cryosections ([…]) of kidneys from 7-week-old normal and Alport mice were air dried, fixed by immersion in ice cold acetone, and subjected to immunohistochemical staining analysis using antibodies specific for MMP-3 (rabbit polyclonal anti-human MMP-3, a gift from Dr. Z. Gunza-Smith, Miami, Fla., used at 1:200 dilution), MMP-12 (rabbit polyclonal antibody against mouse MMP-12, kindly provided by Yoshikatsu Kaneko, used at 1:100 dilution), type IV collagen α1/2 chains (rabbit polyclonal against mouse type IV collagen, Biodesign, Inc., Saco, Me., used at 1:200 dilution), fibronectin (rabbit polyclonal against human plasma fibronectin, Sigma Chemical Co., St. Louis, Mo., used at 1:200). Anti-CD31 antibodies were directly conjugated to Alexa 568 (Molecular Probes, Eugene Oreg.) and purchased from Immunotech (Marseille, France). […] Images were collected using a Cytovision Ultra Image analysis system interfaced with an Olympus BH-2 fluorescence microscope.
To assess the effect of these two compounds on Alport renal disease progression, Alport mice were administered either MMI 270 or BAY 129566 from 4 to 7 weeks of age. […] Cryosections were analyzed by immunofluorescence microscopy to assess for the degree of glomerular and tubulointerstitial damage using antibodies specific for collagen IV α1 and α2 chains, and fibronectin.

MMP-14 = MMP-14 (Homo sapiens, UniProt P50281); conditions: listed as BAY 129566; cited from earlier work
MMP-9 = MMP-9 (Homo sapiens, UniProt P14780); conditions: listed as BAY 129566; cited from earlier work
MMP-9, sequence (P14780 94-707, species assumed): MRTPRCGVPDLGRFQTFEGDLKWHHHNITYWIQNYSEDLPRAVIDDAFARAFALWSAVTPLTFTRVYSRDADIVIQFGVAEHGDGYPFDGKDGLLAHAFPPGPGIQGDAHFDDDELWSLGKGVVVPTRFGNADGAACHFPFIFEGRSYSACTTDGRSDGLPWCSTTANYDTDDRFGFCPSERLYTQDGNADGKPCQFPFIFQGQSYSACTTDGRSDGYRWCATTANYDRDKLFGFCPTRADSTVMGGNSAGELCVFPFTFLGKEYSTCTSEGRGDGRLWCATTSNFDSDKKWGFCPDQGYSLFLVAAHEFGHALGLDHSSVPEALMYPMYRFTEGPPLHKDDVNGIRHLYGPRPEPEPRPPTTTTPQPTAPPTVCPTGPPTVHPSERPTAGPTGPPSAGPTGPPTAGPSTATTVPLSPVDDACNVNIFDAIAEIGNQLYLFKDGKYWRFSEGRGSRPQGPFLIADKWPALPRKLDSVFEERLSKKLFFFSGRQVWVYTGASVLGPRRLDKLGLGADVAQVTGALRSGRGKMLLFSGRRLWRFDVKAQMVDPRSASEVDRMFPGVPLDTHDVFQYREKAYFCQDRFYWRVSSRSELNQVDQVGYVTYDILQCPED

For `CCOC(=O)[C@H](CCc1ccccc1)N[C@@H](C)C(=O)N1[C@H](C(=O)O)C[C@@H]2CCC[C@@H]21` [Ramipril], the lifespan (Alport mice [1]) is given as “doubles”.
For “3-oxygermylpropionic acid [propagermanium]”, the “induction of MMP-9 mRNA in glomeruli” value (MMP-9 mRNA) was “unaffected”, the “induction of MMP-3 mRNA in glomeruli” value (MMP-3 mRNA) was “unaffected” and the “glomerular basement membrane architecture” value (Alport mice [2]; Alport mice, propagermanium 10 mg/kg oral gavage once daily from 5 to 7 weeks of age, transmission electron microscopy) was “restores normal GBM architecture”. The “MMP-12 mRNA induction in glomeruli relative to normal controls” value (MMP-12 mRNA) was 6 fold.
In the case of `O=C(C[C@H](CSc1ccccc1)C(=O)O)c1ccc(-c2ccc(Cl)cc2)cc1` [BAY 12-9566], the “MMP inhibitory effect, MMP-3” value (MMP-3) is listed as “inhibits”, the “MMP inhibitory effect, MMP-12” value (MMP-12) is listed as “does not” and the “MMP inhibitory effect, MMP-2” value (MMP-2) is listed as “inhibits”. The “glomerular and tubulointerstitial (renal) disease progression” value (Alport mice [3]) was “same degree of renal pathology as untreated Alport mice; also recorded: no obvious effect; also recorded: did not significantly affect; also recorded: no improvement”, the “MMP inhibitory effect, MMP-14” value (MMP-14) was “inhibits” and the “MMP inhibitory effect, MMP-9” value (MMP-9) was “inhibits”. For the same compound, the “glomerular basement membrane architecture” value (Alport mice [2]; Alport mice treated with MMP inhibitor from 4 to 7 weeks of age, electron microscopy) was “no effect”.
